The source made the active and inactive calls. No cut-off for these calls is given here.
Key:
Artemia salina = experiment: Toxicity in Artemia salina; type: organism-based; conditions: in vivo
Pseudomonas aeruginosa = experiment: Antibacterial activity against Pseudomonas aeruginosa DSM 1117 at 100 ug/disk by diffusion test; type: functional, organism-based
Bacillus subtilis = experiment: Antibacterial activity against Bacillus subtilis DSM 347 at 100 ug/disk by diffusion test; type: functional, organism-based
Escherichia coli = experiment: Antibacterial activity against Escherichia coli DSM 1103 at 100 ug/disk by diffusion test; type: functional, organism-based
Gambusia affinis = experiment: Toxicity in Gambusia affinis; type: organism-based; conditions: in vivo
Micrococcus luteus = experiment: Antibacterial activity against Micrococcus luteus DSM 348 at 100 ug/disk by diffusion test; type: functional, organism-based
Candida albicans = experiment: Antifungal activity against Candida albicans DSM 1665 at 100 ug/disk by diffusion test; type: functional, organism-based

In the case of `CC(C)=CCC/C(C)=C/CC/C(C)=C/CC/C(=C/CC/C(C)=C/CC/C(C)=C/CC/C(C)=C/CCC1(C)C=Cc2cc(O)ccc2O1)CO` (stereo not drawn), the LC50 (Artemia salina) is reported as 32.3 ppm, the Activity (Pseudomonas aeruginosa) is reported as “inactive” and the Activity (Bacillus subtilis) is reported as “inactive”. The Activity (Escherichia coli) was “inactive”, the LC50 (Gambusia affinis) was greater than 100 ppm and the Activity (Micrococcus luteus) was “inactive”. For the same molecule, the Activity (Candida albicans) was “inactive”.

`CC(C)=CCC/C(C)=C/CC/C(C)=C/CC/C(=C/CC/C(C)=C/CC/C(C)=C/CC/C(C)=C/CC/C(C)=C/Cc1cc(OS(=O)(=O)[O-])ccc1O)CO.[Na+]` was tested, and the LC50 (Artemia salina) was 0.05 ppm, the Activity (Pseudomonas aeruginosa) was “inactive” and the Activity (Bacillus subtilis) was “inactive”. The Activity (Escherichia coli) was “inactive”, the LC50 (Gambusia affinis) was 19.6 ppm and the Activity (Micrococcus luteus) was “inactive”. The Activity (Candida albicans) was “inactive”.

For `CC(C)=CCC/C(C)=C/CC/C(C)=C/CC/C(C)=C/CC/C(C)=C/CC/C(C)=C/CC/C(C)=C/Cc1cc(OS(=O)(=O)[O-])ccc1O.[Na+]`, the LC50 (Artemia salina) was 0.02 ppm, the Activity (Pseudomonas aeruginosa) was “inactive” and the Activity (Bacillus subtilis) was “inactive”. The Activity (Escherichia coli) was “inactive”, the LC50 (Gambusia affinis) was 15.6 ppm and the Activity (Micrococcus luteus) was “inactive”. The Activity (Candida albicans) was “inactive”.

Molecule `CC(C)=CCC/C(C)=C/CC/C(C)=C/CC/C(C)=C/CC/C(C)=C/CC/C(C)=C/CC/C(C)=C/CC/C(C)=C/Cc1cc(O)ccc1O` has an LC50 (Artemia salina) of 0.98 ppm and an LC50 (Gambusia affinis) greater than 100 ppm.

`CC(C)=CCC/C(C)=C/CC/C(C)=C/CC/C(C)=C/CC/C(C)=C/CC/C(C)=C/CC/C(C)=C/Cc1cc(O)ccc1O` showed an LC50 (Artemia salina) of 0.91 ppm and an LC50 (Gambusia affinis) greater than 100 ppm.

`CC(C)=CCC/C(C)=C/CC/C(C)=C/CC/C(C)=C/CC/C(C)=C/CC/C(C)=C/CC/C(C)=C/CC/C(C)=C/Cc1cc(OS(=O)(=O)[O-])ccc1O.[Na+]` was tested, and the LC50 (Artemia salina) was 0.04 ppm, the Activity (Pseudomonas aeruginosa) was “inactive” and the Activity (Bacillus subtilis) was “inactive”. The Activity (Escherichia coli) was “inactive”, the LC50 (Gambusia affinis) was 16.9 ppm and the Activity (Micrococcus luteus) was “inactive”. The Activity (Candida albicans) was “inactive”.

With `CC(C)=CCC/C(C)=C/CC/C(C)=C/CC/C(C)=C/CC/C(C)=C/CC/C(C)=C/CCC1(C)C=Cc2cc(O)ccc2O1` (stereo not drawn) the LC50 (Artemia salina) was 1.15 ppm, the Activity (Pseudomonas aeruginosa) was “inactive” and the Activity (Bacillus subtilis) was “inactive”. The Activity (Escherichia coli) was “inactive”, the LC50 (Gambusia affinis) was greater than 100 ppm and the Activity (Micrococcus luteus) was “inactive”. For the same molecule, the Activity (Candida albicans) was “inactive”.

For `CC(C)=CCC/C(C)=C/CC/C(C)=C/CC/C(C)=C/CC/C(C)=C/CC/C(C)=C/CC/C(C)=C/CCC1(C)C=Cc2cc(O)ccc2O1` (stereo not drawn), the LC50 (Artemia salina) was 1.45 ppm, the Activity (Pseudomonas aeruginosa) was “inactive” and the Activity (Bacillus subtilis) was “inactive”. The Activity (Escherichia coli) was “inactive”, the LC50 (Gambusia affinis) was greater than 100 ppm and the Activity (Micrococcus luteus) was “inactive”. The Activity (Candida albicans) was “inactive”.

For `CC(C)=CCC/C(C)=C/CC/C(C)=C/CC/C(=C/CC/C(C)=C/CC/C(C)=C/CC/C(C)=C/CC/C(C)=C/Cc1cc(O)ccc1O)CO`, the LC50 (Artemia salina) was 0.35 ppm, the Activity (Pseudomonas aeruginosa) was “inactive” and the Activity (Bacillus subtilis) was “inactive”. The Activity (Escherichia coli) was “inactive”, the LC50 (Gambusia affinis) was greater than 100 ppm and the Activity (Micrococcus luteus) was “inactive”. The Activity (Candida albicans) was “inactive”.

— ChEMBL document CHEMBL1159295, “Sulfated Polyprenylhydroquinones from the Sponge Ircinia spinosula” (J Nat Prod, 1995)
